According to ChEMBL document CHEMBL1201862, “PubChem BioAssay data set” (2004):
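Values below derive from 48-hour exposures of cells grown in 96-well plates, with endpoints linearly interpolated between the two concentrations bracketing the appropriate inhibition level. Abbreviation: GI50, concentration required for 50% inhibition of growth.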 Active and inactive are the calls of the source. No stated cut-off is given here; in the data, active = GI50 up to about 1.1 µM and inactive = higher.

Legend:
Assay in all cases: NCI-60 cell line screen, 48 h
[1] = test system: UACC-62
[2] = test system: UACC-257
[3] = test system: NCI/ADR-RES
[4] = test system: NCI-H522
[5] = test system: KM12
[6] = test system: ACHN
[7] = test system: EKVX
[8] = test system: BT-549
[9] = test system: MDA-MB-231
[10] = test system: A498
[11] = test system: OVCAR-8
[12] = test system: HT-29
[13] = test system: RPMI-8226
[14] = test system: IGROV-1
[15] = test system: NCI-H226
[16] = test system: CAKI-1
[17] = test system: U-251
[18] = test system: DU-145
[19] = test system: SNB-75
[20] = test system: RXF 393

Measured: GI50

COc1ccc(CCN2CCN(CCCc3ccccc3)CC2)cc1
inactive: [1] > 100 µM | [2] 77.3 µM | [3] 83 µM | [4] > 100 µM | [5] 72.6 µM | [6] > 100 µM | [7] > 100 µM | [8] 70.5 µM | [9] > 100 µM | [10] > 100 µM | [11] > 100 µM | [12] 33.5 µM | [13] > 100 µM | [14] 96.8 µM | [15] > 100 µM | [16] > 100 µM | [17] > 100 µM | [18] > 100 µM

COC(=O)c1cc(C(=O)OC)cc(-c2ccc3c(c2)-c2nc4c(c(-c5ccc(OC)cc5)c2CC3)CCc2ccc(-c3cc(C(=O)OC)cc(C(=O)OC)c3)cc2-4)c1
inactive: [1] > 100 µM | [2] > 100 µM | [3] > 100 µM | [4] > 100 µM | [5] > 100 µM | [6] > 100 µM | [7] 16.9 µM | [19] > 100 µM | [8] > 100 µM | [9] > 100 µM | [10] > 100 µM | [13] > 100 µM | [15] > 100 µM | [16] > 100 µM | [17] > 100 µM | [18] > 100 µM

NC(=O)c1cc(N2CC2)c([N+](=O)[O-])cc1[N+](=O)[O-] [TRETAZICAR]
inactive: [1] > 100 µM | [2] > 100 µM | [3] > 200 µM | [20] > 100 µM | [4] > 100 µM | [5] > 100 µM | [6] > 100 µM | [7] > 100 µM | [8] > 100 µM | [9] > 200 µM | [10] > 66.7 µM | [11] > 100 µM | [12] > 100 µM | [13] > 100 µM | [14] > 100 µM | [15] > 100 µM | [16] > 100 µM | [17] > 100 µM | [18] > 200 µM

CCOC(=O)N1CCN(c2c(N)nc(C)nc2O)CC1
inactive: [2] > 100 µM | [3] > 100 µM | [4] > 100 µM | [5] > 100 µM | [6] > 100 µM | [7] > 100 µM | [19] > 100 µM | [8] > 100 µM | [9] > 100 µM | [10] > 100 µM | [11] > 100 µM | [12] > 100 µM | [13] > 100 µM | [15] > 100 µM | [17] > 100 µM | [18] > 100 µM

Cc1cc(=O)oc2c(C)c3oc(CBr)c(Br)c3cc12
inactive: [1] 17.5 µM | [2] 54.5 µM | [3] 33.7 µM | [20] 19.8 µM | [4] 14.7 µM | [5] 26.8 µM | [6] 35.6 µM | [7] 92.3 µM | [19] 22.5 µM | [8] 29.3 µM | [9] 87.3 µM | [11] 24.7 µM | [12] 39.2 µM | [13] 16.3 µM | [14] 17.7 µM | [15] 30 µM | [16] 17.2 µM | [17] 31.1 µM | [18] 42.9 µM

CC(C)C1CN1CC(O)Cn1ccnc1[N+](=O)[O-] (stereo not drawn)
inactive: [1] > 100 µM | [2] > 100 µM | [3] > 100 µM | [4] > 100 µM | [5] > 100 µM | [6] > 100 µM | [7] > 100 µM | [19] > 100 µM | [8] > 100 µM | [9] > 100 µM | [10] > 100 µM | [11] > 100 µM | [12] > 100 µM | [14] > 100 µM | [15] > 100 µM | [16] > 100 µM | [17] > 100 µM | [18] > 100 µM

CC1=NN(C(=O)CC(=O)Nc2ccccc2C)C(=O)C1/N=N/c1ccc(C(=O)O)cc1 (stereo not drawn)
inactive: [1] > 100 µM | [2] > 100 µM | [3] > 100 µM | [20] > 100 µM | [4] > 100 µM | [5] > 100 µM | [6] > 100 µM | [7] > 100 µM | [19] 70.5 µM | [8] > 100 µM | [9] > 100 µM | [10] > 100 µM | [11] > 100 µM | [12] > 100 µM | [13] > 100 µM | [14] > 100 µM | [16] > 100 µM | [17] > 100 µM | [18] > 100 µM

COc1cc(C2SCC(=O)N2c2ccccn2)cc(OC)c1OC (stereo not drawn)
inactive: [1] 87.5 µM | [2] 49.8 µM | [3] 39.6 µM | [4] 57.7 µM | [5] 62.1 µM | [6] > 100 µM | [7] > 100 µM | [8] 98.6 µM | [9] > 100 µM | [10] > 100 µM | [11] > 100 µM | [12] > 100 µM | [13] 91 µM | [14] 81.1 µM | [15] > 100 µM | [16] > 100 µM | [17] > 100 µM | [18] > 100 µM
